The test system of the series is CCRIS mutagenicity, Ames/micronucleus/aberration tests. Briefly: CCRIS mutagenicity studies.
Where [1] appears, read: Test System: AMES SALMONELLA TYPHIMURIUM, Strain/Indicator: TA98, Metabolic Activation: NONE, Method: STANDARD PLATE.
Where [2] appears, read: Test System: AMES SALMONELLA TYPHIMURIUM, Strain/Indicator: TA98, Metabolic Activation: RAT, LIVER, S-9, AROCLOR 1254, Method: STANDARD PLATE.
Setting [3] is: Test System: AMES SALMONELLA TYPHIMURIUM, Strain/Indicator: TA100, Metabolic Activation: NONE, Method: STANDARD PLATE.
[4] abbreviates: Test System: AMES SALMONELLA TYPHIMURIUM, Strain/Indicator: TA100, Metabolic Activation: RAT, LIVER, S-9, AROCLOR 1254, Method: STANDARD PLATE.
[5] abbreviates: Test System: AMES SALMONELLA TYPHIMURIUM, Strain/Indicator: TA1535, Metabolic Activation: NONE, Method: STANDARD PLATE.
Where [6] appears, read: Test System: AMES SALMONELLA TYPHIMURIUM, Strain/Indicator: TA97, Metabolic Activation: NONE, Method: STANDARD PLATE.
[7] abbreviates: Test System: AMES SALMONELLA TYPHIMURIUM, Strain/Indicator: TA98, Metabolic Activation: RAT, LIVER, S-9, AROCLOR 1254, Method: PREINCUBATION
The mark [8] stands for this setting: Test System: AMES SALMONELLA TYPHIMURIUM, Strain/Indicator: TA102, Metabolic Activation: NONE, Method: STANDARD PLATE.

Activity calls are given as the source filed them. No rule for the calls is given here.

Regarding `N#CCCNCCC#N`, the mutagenic call (Test System: AMES SALMONELLA TYPHIMURIUM, Strain/Indicator: TA98, Metabolic Activation: HAMSTER, LIVER, S-9, AROCLOR 1254, Method: STANDARD PLATE) was “inactive; negative”; the mutagenic call under setting [1] was “inactive; negative”; the mutagenic call under setting [2] was “inactive; negative”; the mutagenic call (Test System: AMES SALMONELLA TYPHIMURIUM, Strain/Indicator: TA100, Metabolic Activation: HAMSTER, LIVER, S-9, AROCLOR 1254, Method: STANDARD PLATE) was “inactive; negative”; the mutagenic call under setting [3] is “inactive; negative”; the mutagenic call under setting [4] is “inactive; negative”. Also, the mutagenic call by setting is: (Test System: AMES SALMONELLA TYPHIMURIUM, Strain/Indicator: TA1535, Metabolic Activation: HAMSTER, LIVER, S-9, AROCLOR 1254, Method: STANDARD PLATE) “inactive; negative”; under setting [5], “inactive; negative”; (Test System: AMES SALMONELLA TYPHIMURIUM, Strain/Indicator: TA1535, Metabolic Activation: RAT, LIVER, S-9, AROCLOR 1254, Method: STANDARD PLATE) “inactive; negative”; (Test System: AMES SALMONELLA TYPHIMURIUM, Strain/Indicator: TA1537, Metabolic Activation: HAMSTER, LIVER, S-9, AROCLOR 1254, Method: STANDARD PLATE) “inactive; negative”; (Test System: AMES SALMONELLA TYPHIMURIUM, Strain/Indicator: TA1537, Metabolic Activation: NONE, Method: STANDARD PLATE) “inactive; negative”; (Test System: AMES SALMONELLA TYPHIMURIUM, Strain/Indicator: TA1537, Metabolic Activation: RAT, LIVER, S-9, AROCLOR 1254, Method: STANDARD PLATE) “inactive; negative”. Also, the mutagenic call by setting is: (Test System: AMES SALMONELLA TYPHIMURIUM, Strain/Indicator: TA1538, Metabolic Activation: HAMSTER, LIVER, S-9, AROCLOR 1254, Method: STANDARD PLATE) “inactive; negative”; (Test System: AMES SALMONELLA TYPHIMURIUM, Strain/Indicator: TA1538, Metabolic Activation: NONE, Method: STANDARD PLATE) “inactive; negative”; (Test System: AMES SALMONELLA TYPHIMURIUM, Strain/Indicator: TA1538, Metabolic Activation: RAT, LIVER, S-9, AROCLOR 1254, Method: STANDARD PLATE) “inactive; negative”; (Test System: MOUSE LYMPHOMA, Strain/Indicator: L5178Y (TK+/TK-), Metabolic Activation: NONE, Method: SUSPENSION/PLATE) “inactive; negative. reevaluation of results: negative”; (Test System: MOUSE LYMPHOMA, Strain/Indicator: L5178Y (TK+/TK-), Metabolic Activation: RAT, LIVER, S-9, AROCLOR 1254, Method: SUSPENSION/PLATE) “active; positive. reevaluation of results: equivocal”.
As for `CCOC(=O)CNC(=O)CCCCSc1ncnc2nc[nH]c12`, the mutagenic call is, setting by setting: under setting [6], “inactive; negative”; (Test System: AMES SALMONELLA TYPHIMURIUM, Strain/Indicator: TA97, Metabolic Activation: RAT, LIVER, S-9, PHENOBARBITAL AND ALPHA-NAPHTHOFLAVONE, Method: STANDARD PLATE) “inactive; negative”; under setting [1], “inactive; negative”; (Test System: AMES SALMONELLA TYPHIMURIUM, Strain/Indicator: TA98, Metabolic Activation: RAT, LIVER, S-9, PHENOBARBITAL AND ALPHA-NAPHTHOFLAVONE, Method: STANDARD PLATE) “inactive; negative”; under setting [3], “inactive; negative”; (Test System: AMES SALMONELLA TYPHIMURIUM, Strain/Indicator: TA100, Metabolic Activation: RAT, LIVER, S-9, PHENOBARBITAL AND ALPHA-NAPHTHOFLAVONE, Method: STANDARD PLATE) “inactive; negative”. In addition, the mutagenic call was “inactive; negative” under setting [5] and “inactive; negative” (Test System: AMES SALMONELLA TYPHIMURIUM, Strain/Indicator: TA1535, Metabolic Activation: RAT, LIVER, S-9, PHENOBARBITAL AND ALPHA-NAPHTHOFLAVONE, Method: STANDARD PLATE).
In the case of `COc1cc2c(c(OC)c1CO)C(=O)c1ccccc1C2=O`, the mutagenic call is “inactive; negative” (Test System: AMES SALMONELLA TYPHIMURIUM, Strain/Indicator: TA98, Metabolic Activation: NONE, Method: PREINCUBATION); “inactive; negative” (Test System: AMES SALMONELLA TYPHIMURIUM, Strain/Indicator: TA98, Metabolic Activation: RAT, LIVER, S-9, PCB, Method: PREINCUBATION); “inactive; negative” (Test System: AMES SALMONELLA TYPHIMURIUM, Strain/Indicator: TA100, Metabolic Activation: NONE, Method: PREINCUBATION); “inactive; negative” (Test System: AMES SALMONELLA TYPHIMURIUM, Strain/Indicator: TA100, Metabolic Activation: RAT, LIVER, S-9, PCB, Method: PREINCUBATION).
As to `CNCCCC(=O)O`, the mutagenic call under setting [6] is “inactive; negative”; the mutagenic call (Test System: AMES SALMONELLA TYPHIMURIUM, Strain/Indicator: TA97, Metabolic Activation: RAT, LIVER, S-9, AROCLOR 1254, Method: STANDARD PLATE) is “inactive; negative”; the mutagenic call under setting [1] is “inactive; negative”; the mutagenic call under setting [7] is “inactive; negative”; the mutagenic call under setting [2] is “inactive; negative”; the mutagenic call under setting [3] was “inactive; negative”. Moreover, the mutagenic call was “inactive; negative” under setting [4]; “inactive; negative” under setting [8]; “inactive; negative” (Test System: AMES SALMONELLA TYPHIMURIUM, Strain/Indicator: TA102, Metabolic Activation: RAT, LIVER, S-9, AROCLOR 1254, Method: STANDARD PLATE); “inactive; negative” (Test System: AMES SALMONELLA TYPHIMURIUM, Strain/Indicator: TA104, Metabolic Activation: NONE, Method: STANDARD PLATE); “inactive; negative” (Test System: AMES SALMONELLA TYPHIMURIUM, Strain/Indicator: TA104, Metabolic Activation: RAT, LIVER, S-9, AROCLOR 1254, Method: PREINCUBATION); “inactive; negative” (Test System: AMES SALMONELLA TYPHIMURIUM, Strain/Indicator: TA104, Metabolic Activation: RAT, LIVER, S-9, AROCLOR 1254, Method: STANDARD PLATE). For the same molecule, the mutagenic call (Test System: AMES SALMONELLA TYPHIMURIUM, Strain/Indicator: TA2638, Metabolic Activation: NONE, Method: STANDARD PLATE) was “inactive; negative”; the mutagenic call (Test System: AMES SALMONELLA TYPHIMURIUM, Strain/Indicator: TA2638, Metabolic Activation: RAT, LIVER, S-9, AROCLOR 1254, Method: STANDARD PLATE) was “inactive; negative”; the mutagenic call (Test System: AMES SALMONELLA TYPHIMURIUM, Strain/Indicator: UTH8413, Metabolic Activation: NONE, Method: STANDARD PLATE) was “inactive; negative”; the mutagenic call (Test System: AMES SALMONELLA TYPHIMURIUM, Strain/Indicator: UTH8413, Metabolic Activation: RAT, LIVER, S-9, AROCLOR 1254, Method: STANDARD PLATE) was “inactive; negative”; the mutagenic call (Test System: AMES SALMONELLA TYPHIMURIUM, Strain/Indicator: UTH8414, Metabolic Activation: NONE, Method: STANDARD PLATE) was “inactive; negative”; the mutagenic call (Test System: AMES SALMONELLA TYPHIMURIUM, Strain/Indicator: UTH8414, Metabolic Activation: RAT, LIVER, S-9, AROCLOR 1254, Method: STANDARD PLATE) was “inactive; negative”.
Take `Cc1c(C(=O)O)c(O)cc2c1C(=O)c1c(O)c([C@@H]3O[C@@H](CO)[C@H](O)[C@@H](O)[C@H]3O)c(O)c(O)c1C2=O`: the mutagenic call (Test System: AMES SALMONELLA TYPHIMURIUM, Strain/Indicator: TA100, Method: PREINCUBATION) was “active; positive”.
Consider `Nc1nc2ccc(O)cc2[nH]1`, for which the mutagenic call reads like this: under setting [7], “active; positive”; (Test System: AMES SALMONELLA TYPHIMURIUM, Strain/Indicator: TA100, Metabolic Activation: RAT, LIVER, S-9, AROCLOR 1254, Method: PREINCUBATION) “inactive; negative”.
Turning to `Cc1ccc([N+]#N)cc1`, the mutagenic call by setting is: under setting [3], “active; positive”; under setting [8], “active; positive”; (Test System: CHINESE HAMSTER V-79, Strain/Indicator: V-79/6-THIOGUANINE, Metabolic Activation: NONE) “active; positive”.

(Values after PubChem BioAssay AID1259407 (Chemical Carcinogenesis Research Information System (CCRIS), 2018).)
